# Reference: ChEMBL document CHEMBL1909533, “Micelles catalyzed chemoselective synthesis 'in water' and biological evaluation of oxygen containing hetero-1,4-naphthoquinones as potential antifungal agents” (2011)
# Legend:
# Type in all cases: functional
# Aspergillus fumigatus = assay: Antifungal activity against Aspergillus fumigatus by broth microdilution method
# [1] = test system: Trichophyton mentagrophytes; assay: Antifungal activity against Trichophyton mentagrophytes by broth microdilution method
# Cryptococcus neoformans [2] = assay: Antifungal activity against Cryptococcus neoformans by broth microdilution method
# Candida albicans [3] = assay: Antifungal activity against Candida albicans by broth microdilution method
# Candida parapsilosis [4] = assay: Antifungal activity against Candida parapsilosis by broth microdilution method; details: Lodderomyces parapsilosis
# Sporothrix schenckii = assay: Antifungal activity against Sporothrix schenckii by broth microdilution method
# Pseudomonas aeruginosa = assay: Antibacterial activity against Pseudomonas aeruginosa by micro-broth dilution method
# Klebsiella pneumoniae = assay: Antibacterial activity against Klebsiella pneumoniae ATCC 27736 by micro-broth dilution method
# Escherichia coli = assay: Antibacterial activity against Escherichia coli by micro-broth dilution method
# Candida albicans [5] = assay: Ratio of miconazole MIC50 to compound MIC50 for Candida albicans
# Staphylococcus aureus = assay: Antibacterial activity against Staphylococcus aureus ATCC 25923 by micro-broth dilution method
# Candida parapsilosis [6] = assay: Ratio of 2-Chloro-3-phenylsulfanyl-[1,4]naphthoquinone MIC50 to compound MIC50 for Candida parapsilosis
# Candida parapsilosis [7] = assay: Ratio of 2-chloro-3-(4-hydroxyphenylamino)naphthalene-1,4-dione MIC50 to compound MIC50 for Candida parapsilosis
# [8] = test system: Trichophyton mentagrophytes; assay: Ratio of amphotericin-B MIC50 to compound MIC50 for Trichophyton mentagrophytes
# [9] = test system: Trichophyton mentagrophytes; assay: Ratio of fluconazole MIC50 to compound MIC50 for Trichophyton mentagrophytes
# Cryptococcus neoformans [10] = assay: Ratio of miconazole MIC50 to compound MIC50 for Cryptococcus neoformans
compound,measurement,setting,value
O=C1C(Cl)=C(Nc2ccc(O)cc2)C(=O)c2ccccc21,MIC,Aspergillus fumigatus,3.12 µg/mL
same,MIC,[1],1.56 µg/mL
same,MIC,Cryptococcus neoformans [2],0.78 µg/mL
same,MIC,Candida albicans [3],1.56 µg/mL
same,MIC,Candida parapsilosis [4],6.25 µg/mL
same,MIC,Sporothrix schenckii,1.56 µg/mL
O=C1C(Cl)=C(Oc2cccc3ccccc23)C(=O)c2ccccc21,MIC,Pseudomonas aeruginosa,> 50 µg/mL
same,MIC,Klebsiella pneumoniae,> 50 µg/mL
same,MIC,Aspergillus fumigatus,> 50 µg/mL
same,MIC,Escherichia coli,50 µg/mL
same,MIC,[1],1.56 µg/mL
same,MIC,Cryptococcus neoformans [2],25 µg/mL
same,MIC,Candida albicans [3],12.5 µg/mL
same,Ratio,Candida albicans [5],2
same,MIC,Candida parapsilosis [4],12.5 µg/mL
same,MIC,Sporothrix schenckii,1.56 µg/mL
same,MIC,Staphylococcus aureus,25 µg/mL
NC[C@H]1O[C@H](O[C@H]2[C@H](O)[C@@H](O[C@H]3O[C@H](CO)[C@@H](O)[C@H](N)[C@H]3O)[C@H](N)C[C@@H]2N)[C@H](O)[C@@H](O)[C@@H]1O [KANAMYCIN],MIC,Pseudomonas aeruginosa,32 µg/mL
same,MIC,Klebsiella pneumoniae,> 128 µg/mL
same,MIC,Escherichia coli,16 µg/mL
same,MIC,Staphylococcus aureus,2 µg/mL
Clc1ccc(COC(Cn2ccnc2)c2ccc(Cl)cc2Cl)c(Cl)c1 (stereo unspecified) [MICONAZOLE],MIC,Aspergillus fumigatus,12.5 µg/mL
same,MIC,[1],< 0.78 µg/mL
same,MIC,Cryptococcus neoformans [2],12.5 µg/mL
same,MIC,Candida albicans [3],25 µg/mL
COc1ccc(OC2=C(Cl)C(=O)c3ccccc3C2=O)cc1,MIC,Pseudomonas aeruginosa,> 50 µg/mL
same,MIC,Klebsiella pneumoniae,> 50 µg/mL
same,MIC,Aspergillus fumigatus,50 µg/mL
same,MIC,Escherichia coli,> 50 µg/mL
same,MIC,[1],1.56 µg/mL
same,MIC,Cryptococcus neoformans [2],12.5 µg/mL
same,MIC,Candida albicans [3],12.5 µg/mL
same,Ratio,Candida albicans [5],2
same,MIC,Candida parapsilosis [4],6.25 µg/mL
same,MIC,Sporothrix schenckii,1.56 µg/mL
same,MIC,Staphylococcus aureus,50 µg/mL
O=C1C(Cl)=C(Oc2ccc3ccccc3c2)C(=O)c2ccccc21,MIC,Pseudomonas aeruginosa,> 50 µg/mL
same,MIC,Klebsiella pneumoniae,> 50 µg/mL
same,MIC,Aspergillus fumigatus,50 µg/mL
same,MIC,Escherichia coli,> 50 µg/mL
same,MIC,[1],50 µg/mL
same,MIC,Cryptococcus neoformans [2],> 50 µg/mL
same,MIC,Candida albicans [3],> 50 µg/mL
same,MIC,Candida parapsilosis [4],> 50 µg/mL
same,MIC,Sporothrix schenckii,> 50 µg/mL
same,MIC,Staphylococcus aureus,> 50 µg/mL
NCC[C@H](O)C(=O)N[C@@H]1C[C@H](N)[C@@H](O[C@H]2O[C@H](CN)[C@@H](O)[C@H](O)[C@H]2O)[C@H](O)[C@H]1O[C@H]1O[C@H](CO)[C@@H](O)[C@H](N)[C@H]1O [AMIKACIN],MIC,Pseudomonas aeruginosa,1 µg/mL
same,MIC,Klebsiella pneumoniae,2 µg/mL
same,MIC,Escherichia coli,1 µg/mL
same,MIC,Staphylococcus aureus,16 µg/mL
Cc1cc(C)cc(OC2=C(Cl)C(=O)c3ccccc3C2=O)c1,MIC,Pseudomonas aeruginosa,> 50 µg/mL
same,MIC,Klebsiella pneumoniae,> 50 µg/mL
same,MIC,Aspergillus fumigatus,50 µg/mL
same,MIC,Escherichia coli,50 µg/mL
same,MIC,[1],1.56 µg/mL
same,Ratio,Candida parapsilosis [6],2
same,MIC,Cryptococcus neoformans [2],12.5 µg/mL
same,MIC,Candida albicans [3],12.5 µg/mL
same,MIC,Candida parapsilosis [4],3.12 µg/mL
same,Ratio,Candida parapsilosis [7],2
same,MIC,Sporothrix schenckii,1.56 µg/mL
same,MIC,Staphylococcus aureus,25 µg/mL
O=C1C(Cl)=C(Oc2ccccc2OC2=C(Cl)C(=O)c3ccccc3C2=O)C(=O)c2ccccc21,MIC,Pseudomonas aeruginosa,> 50 µg/mL
same,MIC,Klebsiella pneumoniae,> 50 µg/mL
same,MIC,Aspergillus fumigatus,> 50 µg/mL
same,MIC,Escherichia coli,> 50 µg/mL
same,MIC,[1],50 µg/mL
same,MIC,Cryptococcus neoformans [2],> 50 µg/mL
same,MIC,Candida albicans [3],50 µg/mL
same,MIC,Candida parapsilosis [4],50 µg/mL
same,MIC,Sporothrix schenckii,25 µg/mL
same,MIC,Staphylococcus aureus,> 50 µg/mL
Cc1ccc(OC2=C(Cl)C(=O)c3ccccc3C2=O)cc1,MIC,Pseudomonas aeruginosa,> 50 µg/mL
same,MIC,Klebsiella pneumoniae,> 50 µg/mL
same,MIC,Aspergillus fumigatus,25 µg/mL
same,MIC,Escherichia coli,25 µg/mL
same,MIC,[1],1.56 µg/mL
same,Ratio,Candida parapsilosis [6],2
same,MIC,Cryptococcus neoformans [2],12.5 µg/mL
same,MIC,Candida albicans [3],6.25 µg/mL
same,Ratio,Candida albicans [5],4
same,MIC,Candida parapsilosis [4],3.12 µg/mL
same,Ratio,Candida parapsilosis [7],2
same,MIC,Sporothrix schenckii,0.78 µg/mL
same,MIC,Staphylococcus aureus,12.5 µg/mL
O=c1c2oc3ccccc3oc=2c(=O)c2ccccc12,MIC,Pseudomonas aeruginosa,> 50 µg/mL
same,MIC,Klebsiella pneumoniae,> 50 µg/mL
same,MIC,Aspergillus fumigatus,25 µg/mL
same,MIC,Escherichia coli,50 µg/mL
same,MIC,[1],1.56 µg/mL
same,Ratio,Candida parapsilosis [6],2
same,MIC,Cryptococcus neoformans [2],12.5 µg/mL
same,MIC,Candida albicans [3],6.25 µg/mL
same,Ratio,Candida albicans [5],4
same,MIC,Candida parapsilosis [4],3.12 µg/mL
same,Ratio,Candida parapsilosis [7],2
same,MIC,Sporothrix schenckii,0.78 µg/mL
same,MIC,Staphylococcus aureus,25 µg/mL
Cc1cc2c(cc1OC1=C(O)C(=O)c3ccccc3C1=O)C(=O)c1ccccc1C2=O [NEWBOULDIAQUINONE A],MIC,Candida albicans [3],4.88 µg/mL
Cc1ccc(OC2=C(Nc3ccccc3)C(=O)c3ccccc3C2=O)cc1,MIC,Pseudomonas aeruginosa,> 50 µg/mL
same,MIC,Klebsiella pneumoniae,> 50 µg/mL
same,Ratio,[8],2
same,Ratio,[9],2
same,MIC,Aspergillus fumigatus,50 µg/mL
same,MIC,Escherichia coli,50 µg/mL
same,MIC,[1],0.78 µg/mL
same,MIC,Cryptococcus neoformans [2],12.5 µg/mL
same,MIC,Candida albicans [3],12.5 µg/mL
same,MIC,Candida parapsilosis [4],12.5 µg/mL
same,MIC,Sporothrix schenckii,1.56 µg/mL
same,MIC,Staphylococcus aureus,50 µg/mL
NC[C@H]1O[C@H](O[C@H]2[C@H](O)[C@@H](O[C@H]3O[C@H](CO)[C@@H](O)[C@H](N)[C@H]3O)[C@H](N)C[C@@H]2N)[C@H](N)C[C@@H]1O [TOBRAMYCIN],MIC,Pseudomonas aeruginosa,1 µg/mL
same,MIC,Klebsiella pneumoniae,4 µg/mL
same,MIC,Escherichia coli,0.5 µg/mL
same,MIC,Staphylococcus aureus,0.25 µg/mL
Cc1ccc(OC2=C(Sc3ccccc3)C(=O)c3ccccc3C2=O)cc1,MIC,Pseudomonas aeruginosa,> 50 µg/mL
same,MIC,Klebsiella pneumoniae,> 50 µg/mL
same,Ratio,[8],2
same,Ratio,[9],2
same,MIC,Aspergillus fumigatus,> 50 µg/mL
same,MIC,Escherichia coli,> 50 µg/mL
same,MIC,[1],0.78 µg/mL
same,MIC,Cryptococcus neoformans [2],12.5 µg/mL
same,MIC,Candida albicans [3],25 µg/mL
same,MIC,Candida parapsilosis [4],12.5 µg/mL
same,MIC,Sporothrix schenckii,1.56 µg/mL
same,MIC,Staphylococcus aureus,25 µg/mL
Cc1ccc(OC2=C(Sc3ccc(C)cc3)C(=O)c3ccccc3C2=O)cc1,MIC,Pseudomonas aeruginosa,> 50 µg/mL
same,MIC,Klebsiella pneumoniae,> 50 µg/mL
same,MIC,Aspergillus fumigatus,> 50 µg/mL
same,MIC,Escherichia coli,> 50 µg/mL
same,MIC,[1],1.56 µg/mL
same,MIC,Cryptococcus neoformans [2],12.5 µg/mL
same,MIC,Candida albicans [3],25 µg/mL
same,MIC,Candida parapsilosis [4],25 µg/mL
same,MIC,Sporothrix schenckii,3.12 µg/mL
same,MIC,Staphylococcus aureus,12.5 µg/mL
O=C1C=C(Sc2ccccc2)C(=O)c2ccccc21,MIC,Aspergillus fumigatus,25 µg/mL
same,MIC,[1],0.78 µg/mL
same,MIC,Cryptococcus neoformans [2],1.56 µg/mL
same,MIC,Candida albicans [3],12.5 µg/mL
C[C@@H]1[C@H](O)[C@@H](C)/C=C/C=C/C=C/C=C/C=C/C=C/C=C/[C@H](O[C@@H]2O[C@H](C)[C@@H](O)[C@H](N)[C@@H]2O)C[C@@H]2O[C@](O)(C[C@@H](O)C[C@@H](O)[C@H](O)CC[C@@H](O)C[C@@H](O)CC(=O)O[C@H]1C)C[C@H](O)[C@H]2C(=O)O [AMPHOTERICIN B],MIC,[1],1.56 µg/mL
same,MIC,Cryptococcus neoformans [2],0.78 µg/mL
same,MIC,Candida albicans [3],0.39 µg/mL
O=C1C(Cl)=C(Oc2ccc(Cl)cc2)C(=O)c2ccccc21,MIC,Pseudomonas aeruginosa,> 50 µg/mL
same,MIC,Klebsiella pneumoniae,> 50 µg/mL
same,MIC,Aspergillus fumigatus,> 50 µg/mL
same,MIC,Escherichia coli,> 50 µg/mL
same,MIC,[1],1.56 µg/mL
same,MIC,Cryptococcus neoformans [2],12.5 µg/mL
same,MIC,Candida albicans [3],12.5 µg/mL
same,Ratio,Candida albicans [5],2
same,MIC,Candida parapsilosis [4],6.25 µg/mL
same,MIC,Sporothrix schenckii,1.56 µg/mL
same,MIC,Staphylococcus aureus,50 µg/mL
NYSTATIN,MIC,Cryptococcus neoformans [2],3.5 µg/mL
same,MIC,Candida albicans [3],7.8 µg/mL
same,MIC,Sporothrix schenckii,13.2 µg/mL
GENTAMICIN,MIC,Pseudomonas aeruginosa,0.39 µg/mL
same,MIC,Klebsiella pneumoniae,0.78 µg/mL
same,MIC,Escherichia coli,0.18 µg/mL
same,MIC,Staphylococcus aureus,0.78 µg/mL
OC(Cn1cncn1)(Cn1cncn1)c1ccc(F)cc1F [FLUCONAZOLE],MIC,Aspergillus fumigatus,2 µg/mL
same,MIC,[1],1.56 µg/mL
same,MIC,Cryptococcus neoformans [2],0.5 µg/mL
same,MIC,Candida albicans [3],1 µg/mL
same,MIC,Candida parapsilosis [4],1 µg/mL
same,MIC,Sporothrix schenckii,2 µg/mL
O=C1C(Cl)=C(Oc2ccccc2)C(=O)c2ccccc21,MIC,Pseudomonas aeruginosa,> 50 µg/mL
same,MIC,Klebsiella pneumoniae,> 50 µg/mL
same,Ratio,[8],2
same,Ratio,[9],2
same,MIC,Aspergillus fumigatus,50 µg/mL
same,MIC,Escherichia coli,> 50 µg/mL
same,MIC,[1],0.78 µg/mL
same,MIC,Cryptococcus neoformans [2],6.25 µg/mL
same,MIC,Candida albicans [3],12.5 µg/mL
same,Ratio,Cryptococcus neoformans [10],2
same,MIC,Candida parapsilosis [4],12.5 µg/mL
same,MIC,Sporothrix schenckii,3.12 µg/mL
same,MIC,Staphylococcus aureus,50 µg/mL
